# Laboratory results taken from publication PMC6158189, “A pharmacological probe identifies cystathionine β-synthase as a new negative regulator for ferroptosis” (Cell Death & Disease, 2018).
# “Also recorded” adds a separate entry of the source.
# Molecular target: T1, CBS-FL mutant (293T-CBS Q222A) (Homo sapiens, UniProt P35520, Q222A)
# T1 construct: human CBS or hCSE full-length (CBS-FL or CSE) was subcloned into pGEX-KG, pcDNA3 or pCDH vector; expressed in transfected cells
# Test: H2S in HEK293T cells stably expressing CBS Q222A (AzMC probe)
# Format: cell-based
# Details: 5 and 10 μM CH004, 8 h
# Experimental: HEK293T cells were transiently transfected with empty vector (EV, i and ii), hCBS-FL (iii and iv) or hCSE (v and vi) plasmids, followed by incubation with DMSO (i–iii and v) or 10 μM CH004 (iv and vi) for 8 h before staining with 50 μM AzMC, a H2S-specific probe (“Materials and Methods” section). For larger fluorescent and bright-field images, please see Supplementary Figure 4. The expression levels of hCBS or hCSE in HEK293T cells after transient transfections were determined by western blotting using an anti-CBS antibody (3E1, 1:2000; Abnova) or anti-CSE antibody (1:500, GeneTex). The densities of protein bands for hCBS or hCSE in the blots were quantified with the ImageJ software (National Institutes of Health, Bethesda, MD, USA) and expressed as ratios of respective control (EV group). […] The fluorescent images of the H2S (blue) were accordingly quantified (“Materials and Methods” section) with ImageJ. […] A representative fluorescence image from three independent experiments is shown. […]
# H2S levels in living cells were detected using a H2S-specific fluorescent probe according to a protocol described previously[31],[55]. […] After incubation with 50 μM AzMC at 37 °C for 30 min, the cells were washed 4 times with PBS, and the fluorescent images were recorded with excitation by 405 nm laser by using a A1Si (Nikon) confocal microscope. […]
compound,measurement,value
"Cn1nc(Cc2ccccc2)nc2c(=O)n(C)c(=O)nc1-2 [CH004, 3-benzyl-1,6-dimethylpyrimido[5,4-e][1,2,4]triazine-5,7(1H,6H)-dione]",effect on H2S,no significant decrease; also recorded: hardly affected
